Key:
[1] = tested on: PKA activity in alpha cells; assay: PKA activity measurements (AKAR3) in alpha cells in intact islets; format: cell-based, mouse
Description: PKA activity was measured using AKAR3 as previously described. The cells were continuously superfused at a rate of 60 μl/min with EC4 (ESM Table 2).

[2] = tested on: isolated mouse pancreatic islets; assay: Insulin secretion in isolated mouse islets (RIA); format: cell-based
Description: Mouse islets were used acutely, except for studies with PTX, wherein islets were treated overnight with the toxin. Human islets were maintained in culture for up to 48 h in RPMI medium containing 10% (vol./vol.) FCS, 1% (vol./vol.) penicillin/streptomycin and 5 mmol/l glucose. Experiments were conducted as previously described. Islets were incubated in 0.3 ml EC1 or EC2 media (ESM Table 2) supplemented with glucose and other reagents as indicated.
Insulin and somatostatin were determined by RIA (Millipore and Diasource ImmunoAssays, respectively) as described previously. In these experiments, rates of release are expressed as % of contents unless otherwise indicated.

human alpha cells = assay: TIRF imaging of docked secretory granules in human alpha cells; format: cell-based; details: 10 pmol/l
Description: Cells were imaged using total internal reflection fluorescence (TIRF) microscopy (AxioObserver Z1 with a ×100/1.45 objective [Carl Zeiss] and a diode-pumped solid state laser at 491 nm). For these measurements, EC1 was used (ESM Table 2). Images from cells infected with preproglucagon promoter (PPPG)-neuropeptide Y (NPY)-enhanced green fluorescent protein (EGFP) virus were recorded using an electron-multiplying charge-coupled device camera (Photometrics Evolve) using ZEN blue. Single images of cells were acquired to measure the number of docked granules. Incoming and outgoing granules during visiting, docking and undocking were determined from multiple frame movies as described previously. Candidate docking or undocking events were found manually as granules that approached the TIRF field with an axial component and became laterally confined for at least two frames. We defined docking as granules that remained confined for at least 1 min. Visitors were those granules that remained for <1 min after appearing at the plasma membrane. Undocking was defined as slow movement of a previously docked granule away from its docking site. Granule density was calculated using a script that used the built-in ‘find maxima’ function in ImageJ (version 1.53c; http://rsbweb.nih.gov/ij) for spot detection.

[3] = molecular target: T1, human GCGR expressed in HEK293T cells (Homo sapiens, UniProt P47871); assay: G protein dissociation (TRUPATH BRET2 biosensor); format: cell-based
T1 construct: expressed in transfected cells; host or cells: HEK293T (ATCC CRL-3216)
Description: G protein dissociation was measured using the TRUPATH biosensor platform. TRUPATH constructs were obtained from Addgene (kit no. 1000000163 [21]). […] Cells were transfected with equal amounts of GCGR, GαsS-, Gαi1-, Gαi2-, Gαi3-, GαoA-, GαoB- or Gαz-Rluc8, Gβ3, and Gγ1-, Gγ8- or Gγ9-GFP2 (as described in [21]), and pcDNA3.1(‑) using polyethyleneimine (ESM Table 3). After 24 h, cells were seeded at 50,000 cells/well of a 0.01% poly-L-lysine-coated white 96-well plate (Greiner) and grown overnight. Cells were washed with Hanks’ Balanced Salt Solution (Lonza) buffered with 20 mmol/l HEPES (Sigma) and supplemented with 0.1% BSA (Sigma) (wt/vol.). Cells were incubated in 5 μmol/l coelenterazine 400a (Nanolight Technologies) for 5 min. […] The bioluminescence resonance energy transfer 2 (BRET2) ratio was calculated (λ515/λ400) and the time point corresponding to maximal dissociation was used to generate dose–response curves. pEC50 values were calculated using the ‘three parameter log(agonist) vs response’ model in GraphPad Prism9 (version 9.1.0; graphpad.com).

T1 sequence (P47871 26-477): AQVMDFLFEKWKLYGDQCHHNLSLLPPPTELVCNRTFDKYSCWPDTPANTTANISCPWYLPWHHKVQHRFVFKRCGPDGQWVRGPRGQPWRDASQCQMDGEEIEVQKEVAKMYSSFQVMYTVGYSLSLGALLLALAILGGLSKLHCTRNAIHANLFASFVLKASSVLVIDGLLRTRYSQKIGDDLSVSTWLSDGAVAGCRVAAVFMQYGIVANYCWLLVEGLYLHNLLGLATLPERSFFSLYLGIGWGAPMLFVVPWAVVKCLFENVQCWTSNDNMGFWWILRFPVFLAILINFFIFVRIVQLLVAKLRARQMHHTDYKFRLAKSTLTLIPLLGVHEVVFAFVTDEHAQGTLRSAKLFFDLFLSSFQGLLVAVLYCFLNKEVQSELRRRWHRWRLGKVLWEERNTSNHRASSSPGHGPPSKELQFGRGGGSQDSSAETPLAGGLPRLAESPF

CC[C@H](C)[C@H](NC(=O)[C@H](Cc1ccccc1)NC(=O)[C@H](CCC(=O)O)NC(=O)[C@H](CCCCN)NC(=O)[C@H](C)NC(=O)[C@H](C)NC(=O)[C@H](CCC(N)=O)NC(=O)CNC(=O)[C@H](CCC(=O)O)NC(=O)[C@H](CC(C)C)NC(=O)[C@H](Cc1ccc(O)cc1)NC(=O)[C@H](CO)NC(=O)[C@H](CO)NC(=O)[C@@H](NC(=O)[C@H](CC(=O)O)NC(=O)[C@H](CO)NC(=O)[C@@H](NC(=O)[C@H](Cc1ccccc1)NC(=O)[C@@H](NC(=O)CNC(=O)[C@@H](N)CCC(=O)O)[C@@H](C)O)[C@@H](C)O)C(C)C)C(=O)N[C@@H](C)C(=O)N[C@@H](Cc1c[nH]c2ccccc12)C(=O)N[C@@H](CC(C)C)C(=O)N[C@H](C(=O)N[C@@H](CCCCN)C(=O)NCC(=O)N[C@@H](CCCNC(=N)N)C(N)=O)C(C)C [GLP-1(9–36)]
effect on PKA activity in the presence of L-168049 ([1]; 10 and 100 pmol/l, L-168049 100 nmol/l): without effect | inhibitory effect on PKA activity after PTX pretreatment ([1]; PTX pretreatment): abolished | concentrations at which the decrease in cAMP/PKA activity was maximal ([1]; alpha cells in intact mouse islets): > 10 pmol/L | effect on insulin secretion ([2]; 30 pmol/l alone, at 1 or 10 mmol/l glucose): did not increase insulin secretion | effect on insulin secretion ([2]; 10–10,000 pmol/l, mouse islets, 1 mmol/l glucose): No stimulatory effects | increase of docking (human alpha cells; alpha cells from donors with type 2 diabetes): 40% | reduction of the number of docked granules (human alpha cells; alpha cells from healthy donors, after 15 min): 52% | efficacy of GoA dissociation relative to glucagon ([3]; GCGR, GoA, HEK293T): ~ 10% | EC50 ([3]; Gα i2, mean ± S.E.M.): 501 nM | pEC50 ([3]; Gα oA, mean ± S.E.M.): 7.55±-0.52
